Reference: paper PMC11542721, “Molecular properties, including chameleonicity, as essential tools for designing the next generation of oral beyond rule of five drugs” (ADMET & DMPK, 2024)
Like-named read-outs stand apart in the source and are kept apart here.

Experiments:
[1] = Ionization behaviour from variation of log k'80 PLRP-S at three pHs; assay type: physicochemical; settings: for A/B: acid or base profile: log k'80 PLRP-S at acidic, neutral and basic pH
Description: The ionization constant (usually reported as pKa) is an important parameter for evaluating ionizable molecules since it may have a decisive impact on the in vitro ADME properties. […] Since the experimental determination of pKa is not a trivial assay and a certain degree of expertise is required, Caron’s group observed that the ionization behaviour (not the pKa) of a molecule can be obtained by monitoring the variation of the log of the capacity factor in the PLRP-S system (log k'80 PLRP-S) vs. the pH [15]. […] In many cases, ionization is completely overlooked, and in some instances, it is predicted using standard calculators not designed for large, flexible molecules.
Then, we focused on experimental descriptors. We first explored the ionization behavior of the three PROTACS by monitoring the variation in log k'80 PLRP-s at three pHs.

[2] = IAM chromatography (log kw^IAM and Δ log kw^IAM); assay type: physicochemical; settings: for log kw^IAM: IAM column, extrapolated to 0% organic solvent; for Δ log kw^IAM: polarity descriptor
Description: Furthermore, RP-HPLC methods generate biomimetic environments. For example, immobilized artificial membrane (IAM) chromatography, first introduced by Charles Pidgeon and his colleagues, is used to simulate biological cell membranes. IAM columns consist of a monolayer of phosphatidylcholine covalently bound to an inert silica support . The reference descriptor is the logarithm of the capacity factor at 0% organic solvent (extrapolated value), named log kW^IAM. In the IAM system, the retention of charged molecules also depends on the electrostatic interactions with the phospholipid heads.
Without entering the method details that can be retrieved in the literature, Δ log kw^IAM represents the polarity of the analyte.

[3] = Chamelogk chromatographic chameleonicity descriptor (PLRP-S); assay type: physicochemical; settings: Exp. minus Ext. log k' 100 PLRP-S
Procedure: Therefore, we recently implemented a chromatographic descriptor, Chamelogk, that measures chameleonicity in a unique and dynamic system. To obtain Chamelogk (Figure 5B), the first step involves the experimental determination of the capacity factor (log k' PLRP-S) at 50, 60, and 70 % of acetonitrile. Then, the linear correlation between the log k' PLRP-S and the percentage of MeCN is determined. The equation derived from the linear correlation is then applied to extrapolate the capacity factor at 100 % (called Ext. log k’ 100 PLRP-S). Then, the experimental value at 100 % MeCN is measured (named Exp. log k’ 100 PLRP-S) and the difference with the extrapolated value is calculated. Thus, Chamelogk is defined as the capacity factor difference (Δ log k') between the experimental log k' measured at 100 % MeCN (Exp. log k' 100) and the extrapolated value (Ext. log k’ 100), as shown by Equation 2 and Figure 5B.

[4] = cited from earlier work
[5] = tested on: enzalutamide-insensitive tumours; design: method as in PMID 36508999; settings: cited from earlier work
[6] = preclinical models; cited from earlier work
[7] = BRlogD chromatographic lipophilicity (octanol/water surrogate)
ER (estrogen receptor) = tested on: ER (estrogen receptor); design: method as in doi:10.1016/j.annonc.2023.09.567; settings: tumor cell lines, in vitro; cited from earlier work
advanced breast cancer = tested on: advanced breast cancer; design: method as in doi:10.1016/j.annonc.2023.09.567; settings: phase I and II, cited from earlier work
[8] = mouse; cited from earlier work
[9] = tested on: Bcl-xL (B-cell lymphoma extra-large); design: method as in PMID 32677976; settings: cancer cells, preclinical studies; cited from earlier work
[10] = RP-HPLC, surrogate of octanol/water

Q: Which “A/B: acid or base profile” value [1] does the source give for N#Cc1ccc(O[C@H]2CC[C@H](NC(=O)c3ccc(N4CCC(CN5CCN(c6cc7c(cc6F)C(=O)N(C6CCC(=O)NC6=O)C7=O)CC5)CC4)nn3)CC2)cc1Cl (stereo partly drawn) [ARV-110, bavdegalutamide] here?
A: basic and Base

Q: And the “Ionization state at pH 7” value [1]?
A: predominantly neutral

Q: And the “log kw^IAM” value [2]?
A: 3.20

Q: And the “Δ log kw^IAM” value [2]?
A: 0.33

Q: And the Chamelogk [3]?
A: 0.99

Q: What about the Absorption [4] of the same compound?
A: Oral

Q: What about the “Tumour growth in vivo” value [5] of the same compound?
A: significantly inhibited the growth

Q: And the “Oral bioavailability F” value [6]?
A: > 30%

Q: And the chromatographic logD [7]?
A: 4.25

Q: What does the source list for O=C1CC[C@H](N2Cc3cc(N4CCN(CC5CCN(c6ccc([C@@H]7c8ccc(O)cc8CC[C@@H]7c7ccccc7)cc6)CC5)CC4)ccc3C2=O)C(=O)N1 [ARV-471, vepdegestrant]?
A: A/B: acid or base profile [1]: basic and Base; Ionization state at pH 7 [1]: predominantly neutral; log kw^IAM [2]: 3.39; Δ log kw^IAM [2]: 0.07; Absorption [4]: Oral; ER degradation (ER (estrogen receptor)): up to 97%; Oral bioavailability F [6]: > 30%; Clinical activity (advanced breast cancer; advanced breast cancer patients): showed clinical activity; Tolerability (advanced breast cancer; all doses orally administered): well tolerated; chromatographic logD [7, 10]: 4.73

Q: For Cc1sc2c(c1C)C(c1ccc(Cl)cc1)=N[C@@H](CC(=O)Nc1ccc(OCCOCCOCCOCCNc3cccc4c3C(=O)N(C3CCC(=O)NC3=O)C4=O)cc1)c1nnc(C)n1-2 (stereo partly drawn) [ARV-825], which “A/B: acid or base profile” value [1] is on record?
A: nonionizable

Q: For Cc1ncsc1-c1ccc([C@H](C)NC(=O)[C@@H]2C[C@@H](O)CN2C(=O)[C@@H](NC(=O)CCCCCC(=O)N2CCN(CC[C@H](CSc3ccccc3)Nc3ccc(S(=O)(=O)NC(=O)c4ccc(N5CCN(CC6=C(c7ccc(Cl)cc7)CCC(C)(C)C6)CC5)cc4)cc3S(=O)(=O)C(F)(F)F)CC2)C(C)(C)C)cc1 [DT2216], which “A/B: acid or base profile” value [1] is on record?
A: ampholyte

Q: And the “log kw^IAM” value [2]?
A: > 4

Q: And the Absorption [4]?
A: Intravenous

Q: What about the “Oral bioavailability F” value [8] of the same compound?
A: < 0.03%

Q: And the “Degradation of Bcl-xL” value [9]?
A: selectively induced degradation of Bcl-xL

Q: What about the chromatographic logD [7, 10] of the same compound?
A: > 6

Q: For C=C[C@@H]1C[C@]1(NC(=O)[C@@H]1C[C@@H](Oc2ncc(OC)c3ccc(Cl)cc23)CN1C(=O)[C@@H](NC(=O)OC(C)(C)C)C(C)(C)C)C(=O)NS(=O)(=O)C1CC1 [asunaprevir], which “A/B: acid or base profile” value [1] is on record?
A: acidic
